# Experimental data published in patent publication US5223421A, “Identification of methionine Nα-acetyltransferase” (The General Hospital Corporation, priority 1990, dated 1993).
# “And” between values parts separate entries of the source, which are not always exact repeats. Equal values may be shown once. “Also recorded” adds a separate entry of the source. Read-outs that look alike come from different tables or passages of the source.
# What was measured:
# [1] = test system: methionine N^α -acetyltransferase from S. cerevisiae; test: Effect of protein modification reagents on enzyme activity; assay type: biochemical, Saccharomyces cerevisiae
# Protocol: (§1) N^α -acetyltransferase activity was determined as previously described [Lee et al., J. Biol. Chem. 263:14948-14955 (1988)]. Aliquots of the lysate or chromatographic fractions were added to 1.5 ml Eppendorf tubes containing a reaction mixture of 50 mM HEPES, pH 7.4, 150 mM KCl, 1 mM DTT, 25 μM [^3 H] acetyl coenzyme A (0.5 μCi) and 50 μM synthetic peptide with an adjusted final volume of 100 μl. The assay mixture was incubated at 30° C. for 30 min. The reaction was stopped by adding 17 μl of 0.5M acetic acid and chilled in an ice bath. The reaction samples were filtered through SP membrane discs (Cuno) (previously pre-swollen in 0.5M acetic acid), and then washed three times with 1 ml of 0.5M acetic acid on a Millipore 1225 sampling manifold. The partially dried membranes were placed in scintillation cocktail and counted with a Beckman LS 3801 scintillation counter. One unit of activity was defined as the amount of enzyme able to transfer 1 pmol of [^3 H] acetyl group from [^3 H] acetyl coenzyme A to synthetic peptide per min under standard enzyme assay conditions defined above.
# In order to determine the possible catalytic role for different types of amino acid residues in the enzyme, various chemical modifications were carried out (Table 10). Yeast methionine acetyltransferase was incubated with each reagent at 30° C. for 15 min, dialyzed against 50 mM HEPES, pH 7.4, 150 mM, 1 mM DTT at 4° C. for 3 to 4 hr. The enzyme activity was determined under standard assay conditions using PAI (N=3), assayed as described above.
# [2] = biological target: T1, yeast N^α AT (Saccharomyces cerevisiae, UniProt P07347+P12945); test: Effect of ions and reagents on yeast N^α AT (comparison in the discussion); assay type: biochemical
# T1 sequence (P12945 2-854 limits assumed): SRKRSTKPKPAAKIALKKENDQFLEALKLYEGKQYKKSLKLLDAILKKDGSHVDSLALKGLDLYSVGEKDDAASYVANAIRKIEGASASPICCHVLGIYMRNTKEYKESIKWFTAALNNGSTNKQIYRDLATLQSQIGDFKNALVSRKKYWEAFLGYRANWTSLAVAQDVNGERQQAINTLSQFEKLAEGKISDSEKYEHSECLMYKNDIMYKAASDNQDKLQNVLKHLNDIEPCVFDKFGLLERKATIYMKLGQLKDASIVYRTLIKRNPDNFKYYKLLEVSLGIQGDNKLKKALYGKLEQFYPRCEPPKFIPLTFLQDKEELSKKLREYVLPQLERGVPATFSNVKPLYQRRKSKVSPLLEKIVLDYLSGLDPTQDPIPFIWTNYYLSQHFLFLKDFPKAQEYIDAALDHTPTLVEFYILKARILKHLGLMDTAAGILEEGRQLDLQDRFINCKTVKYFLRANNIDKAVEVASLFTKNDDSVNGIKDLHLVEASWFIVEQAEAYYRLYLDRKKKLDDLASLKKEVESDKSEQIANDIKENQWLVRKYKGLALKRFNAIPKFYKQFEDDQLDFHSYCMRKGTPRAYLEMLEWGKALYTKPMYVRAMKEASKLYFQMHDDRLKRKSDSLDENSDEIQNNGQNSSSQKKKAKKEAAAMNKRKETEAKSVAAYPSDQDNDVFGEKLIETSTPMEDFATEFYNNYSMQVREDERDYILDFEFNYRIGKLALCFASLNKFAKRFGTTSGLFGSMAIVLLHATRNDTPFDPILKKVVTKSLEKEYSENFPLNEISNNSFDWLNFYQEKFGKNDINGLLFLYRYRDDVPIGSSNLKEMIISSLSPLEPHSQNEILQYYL
# T1 sequence (P07347 1-238): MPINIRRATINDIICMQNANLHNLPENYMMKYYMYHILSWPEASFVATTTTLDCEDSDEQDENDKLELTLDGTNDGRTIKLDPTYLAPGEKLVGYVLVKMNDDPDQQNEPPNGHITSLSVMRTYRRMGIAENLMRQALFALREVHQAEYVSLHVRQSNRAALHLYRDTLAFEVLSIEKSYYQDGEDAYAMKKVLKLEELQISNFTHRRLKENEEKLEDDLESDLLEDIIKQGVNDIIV
# [3] = test system: methionine N^α -acetyltransferase from S. cerevisiae; assay type: biochemical, Saccharomyces cerevisiae; settings: for effect of ion or salt on M-N^α AT activity: concentration not given; for Enzyme Activity (%): 5 min room temperature, 50 mM HEPES pH 7.4, 1 mM DTT, substrate PAI (N=3)
# Protocol: as §1, with “counter.” for “counter. One unit of activity was defined as the amount of enzyme able to transfer 1 pmol of [^3 H] acetyl group from [^3 H] acetyl coenzyme A to synthetic peptide per min under standard enzyme assay conditions defined above.”
# Yeast methionine acetyltransferase was incubated in the presence of various divalent cations at a room temperature for 5 min in 50 mM HEPES, pH 7.4 containing 1 mM DTT. The enzyme activity was determined under standard assay conditions using PAI (N=3), as described above.
# [4] = test system: yeast M-N^α -acetyltransferase; test: Effect of KCl or NaCl on enzyme activity; assay type: biochemical, Saccharomyces cerevisiae; settings: for reduction in enzyme activity: enzyme assay performed at 0.8M, 800000 µM; for effect on enzyme activity: up to 0.5M in the assay
# Protocol: as §1
# [5] = test system: N^α -acetyltransferase activity of crude yeast lysate, wild-type (AAA1) strain T3A; test: N^α -acetylation of peptide substrates by crude yeast lysate, wild-type strain; assay type: biochemical, Saccharomyces cerevisiae; settings: crude lysate of wild-type strain T3A; mean ± SD (N=3-5); normalized to human adrenocorticotropic hormone (1-24); 50 μM peptide
# Protocol: as §1
# (§2) The wild-type (containing endogenous N^α -acetyltransferase activity) and the aaa1 (lacking endogenous N^α -acetyltransferase activity) strains were T3A and T3A-a, respectively (Lee, F-J. S., et al., J. Bacteriol. 171, 5795-5802 (1989)). Human adrenocorticotropic hormone (1-24), yeast alcohol dehydrogenase (1-24), and human superoxide dismutase (1-24) have either serine or alanine as amino-terminal residues, while proteinase A inhibitor 3 has a methionine residue. The synthesis of the peptide substrates, the preparation of the crude yeast homogenate, and the assay of enzyme activity were as previously described by Lee et al. (Lee, F-J. S., et al., J. Biol. Chem. 263:14948 (1988); Kamitani, K., et al., J. Biol. Chem. 264:13188 (1989)). The numbers in parentheses refer to the residue numbers, and the letters in parentheses specify the amino acid sequence. Abbreviations: A (alanine), C (cysteine), D (aspartic acid), E (glutamic acid), F (phenylalanine), G (glycine), H (histidine), I (isoleucine), K (lysine), L (leucine), M (methionine), N (asparagine), P (proline), Q (glutamine), R (arginine), S (serine), T (threonine), V (valine), W (tryptophan). Data are reported as mean activity±SD (N=3-5) and are normalized to the activity of the homogenate towards human adrenocorticotropic hormone (1-24).
# [6] = biological target: T2, N^α -acetyltransferase activity of crude yeast lysate, aaa1 mutant strain T3A-a (Saccharomyces cerevisiae, UniProt Q06504); test: N^α -acetylation of peptide substrates by crude yeast lysate, aaa1 mutant strain; assay type: biochemical; settings: crude lysate of aaa1 mutant strain T3A-a; mean ± SD (N=3-5); normalized to human adrenocorticotropic hormone (1-24); 50 μM peptide
# T2 construct: a crude yeast homogenate from the aaa1 mutant strain; endogenous in cells; host or cells: Saccharomyces cerevisiae strain T3A-a (aaa1), crude lysate
# T2 sequence (Q06504 1-195): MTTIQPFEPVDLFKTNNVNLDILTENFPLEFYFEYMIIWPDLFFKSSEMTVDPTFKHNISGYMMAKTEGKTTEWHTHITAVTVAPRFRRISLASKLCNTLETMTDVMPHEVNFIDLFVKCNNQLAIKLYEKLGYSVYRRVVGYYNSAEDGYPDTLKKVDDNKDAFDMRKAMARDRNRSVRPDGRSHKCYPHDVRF
# T2 sequence (Q12387 1-796 partner): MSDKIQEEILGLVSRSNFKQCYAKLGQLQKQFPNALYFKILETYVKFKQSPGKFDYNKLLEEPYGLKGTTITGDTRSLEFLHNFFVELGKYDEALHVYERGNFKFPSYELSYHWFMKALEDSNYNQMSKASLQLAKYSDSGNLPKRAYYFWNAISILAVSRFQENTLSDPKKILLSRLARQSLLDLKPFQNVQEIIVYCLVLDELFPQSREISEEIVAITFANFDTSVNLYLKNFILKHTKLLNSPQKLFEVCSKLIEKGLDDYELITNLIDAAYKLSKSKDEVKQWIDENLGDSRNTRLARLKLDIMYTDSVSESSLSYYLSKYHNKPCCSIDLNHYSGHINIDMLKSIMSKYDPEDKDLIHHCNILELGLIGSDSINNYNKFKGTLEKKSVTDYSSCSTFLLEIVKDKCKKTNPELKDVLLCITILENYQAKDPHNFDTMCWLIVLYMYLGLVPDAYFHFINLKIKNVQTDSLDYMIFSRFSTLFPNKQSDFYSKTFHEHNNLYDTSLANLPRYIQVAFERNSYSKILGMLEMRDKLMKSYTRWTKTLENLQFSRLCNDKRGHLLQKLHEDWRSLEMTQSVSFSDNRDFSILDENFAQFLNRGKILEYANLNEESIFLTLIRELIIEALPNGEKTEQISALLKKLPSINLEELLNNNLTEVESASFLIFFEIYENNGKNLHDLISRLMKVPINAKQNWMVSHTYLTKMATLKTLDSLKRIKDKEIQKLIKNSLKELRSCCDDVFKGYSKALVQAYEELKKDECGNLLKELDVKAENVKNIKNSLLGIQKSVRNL
# Protocol: as §1, §2
# [7] = reagent 10.0 mM, 30° C. 15 min, then dialyzed, substrate PAI (N=3)
# [8] = reagent 1.0 mM, 30° C. 15 min, then dialyzed, substrate PAI (N=3)
compound,measurement,setting,value
OCCS [2-mercaptoethanol],effect of reagent on M-N^α AT activity,[1]; concentration not given,did not affect the enzyme activity
same,effect of reagent on M-N^α AT activity,"[1]; concentration not given, listed as β-mercaptoethanol",inability
same,Enzyme Activity (%),[1]; [7],96%
same,effect of reagent on N^α AT activity,[2],inability
O=S(=O)([O-])[O-].[Cu+2] [CuSO4],effect of ion or salt on M-N^α AT activity,[3]; listed as Cu^2+,pronounced and concentration-dependent inhibition; also recorded: inhibited markedly
same,Enzyme Activity (%),[3]; salt 0.1 mM,65%
same,Enzyme Activity (%),[3]; salt 1 mM,0%
same,effect of ion on N^α AT activity,[2],inhibited markedly
OC(CS)C(O)CS (stereo not shown) [DTT],effect of reagent on M-N^α AT activity,[1]; concentration not given,did not affect the enzyme activity; also recorded: inability
same,Enzyme Activity (%),[1]; [7],95%
same,effect of reagent on N^α AT activity,[2],inability
"O=C(O)CI [IAA, iodoacetic acid]",Enzyme Activity (%),[1],102% and 75%
same,effect of reagent on N^α AT activity,[2],inability
"NC(=O)CI [IAM, iodoacetamide]",effect of reagent on M-N^α AT activity,[1]; 1 mM,without effect
same,effect of reagent on M-N^α AT activity,[1]; 10 mM,partial inactivation
same,effect of reagent on M-N^α AT activity,[1]; concentration not given,inability
same,Enzyme Activity (%),[1]; [8],100%
same,Enzyme Activity (%),[1]; [7],86%
same,effect of reagent on N^α AT activity,[2],inability
[Cl-].[K+] [KCl],reduction in enzyme activity,[4],50%
same,effect on enzyme activity,[4],did not affect the enzyme activity
"CCN1C(=O)C=CC1=O [NEM, N-ethylmaleimide]",effect of reagent on M-N^α AT activity,[1]; 0.5 mM,partial inactivation
same,effect of reagent on M-N^α AT activity,[1]; concentration not given,inability
same,Enzyme Activity (%),"[1]; reagent 0.5 mM, 30° C. 15 min, then dialyzed, substrate PAI (N=3)",77%
same,Enzyme Activity (%),"[1]; reagent 5.0 mM, 30° C. 15 min, then dialyzed, substrate PAI (N=3)",20%
same,effect of reagent on N^α AT activity,[2],inability
[Cl-].[Na+] [NaCl],reduction in enzyme activity,[4],50%
same,effect on enzyme activity,[4],did not affect the enzyme activity
O=S(=O)([O-])[O-].[Zn+2] [ZnSO4],effect of ion or salt on M-N^α AT activity,[3]; listed as Zn^2+,pronounced and concentration-dependent inhibition; also recorded: inhibited markedly
same,Enzyme Activity (%),[3]; salt 0.01 mM,95%
same,Enzyme Activity (%),[3]; salt 0.1 mM,52%
same,Enzyme Activity (%),[3]; salt 1 mM,0%
same,effect of ion on N^α AT activity,[2],inhibited markedly
Cl [chloride ion],effect of ion or salt on M-N^α AT activity,[3],neither M-N^α AT nor N^α AT were activated
same,effect of ion on N^α AT activity,[2],neither M-N^α AT nor N^α AT were activated
"O=C(O)c1cc[c]([Hg][Cl])cc1 [pCMB, p-chloromercuribenzoate]",effect of reagent on M-N^α AT activity,[1]; 1 mM,without effect
same,effect of reagent on M-N^α AT activity,[1]; 10 mM,partial inactivation
same,effect of reagent on M-N^α AT activity,[1]; concentration not given,inability
same,Enzyme Activity (%),[1]; [8],94%
same,Enzyme Activity (%),[1]; [7],25%
same,effect of reagent on N^α AT activity,[2],inability
ATKAVCVLKGDGPVQGSINFEQKE (ATKAVCVLKGDGPVQGSINFEQKE) [Superoxide dismutase (1-24) (Human)],Activity (%) AAA1,[5],80 ± 6%
same,Activity (%) aaa1,[6],0%
